Measured values taken from ChEMBL document CHEMBL1914337, “Synthesis and biological evaluation of 2-indolinone derivatives as potential antitumor agents” (Eur J Med Chem, 2011).
Activity calls are given as the source filed them. No cut-off for these calls is given here.

Assays:
[1] = test system: PC-3; test: Cytotoxicity against human PC3 cells after 48 hrs by MTT assay; type: functional, cell-based; conditions: PC-3, 48 h
[2] = test system: HCT-116; test: cells; conditions: Homo sapiens, HCT-116, 48 h
Description: Cytotoxicity against human HCT116 cells after 48 hrs by MTT assay

[3] = test system: HL-60; test: cells; conditions: Homo sapiens, HL-60, 48 h
Description: Cytotoxicity against human HL60 cells after 48 hrs by MTT assay

[4] = test system: K562; test: cells; conditions: Homo sapiens, K562, 48 h
Description: Cytotoxicity against human K562 cells after 48 hrs by MTT assay

[5] = Cytotoxicity against human QSG7701 cells after 48 hrs by MTT assay; type: cell-based; conditions: QSG7701, 48 h
[6] = test system: A549; test: cells; conditions: Homo sapiens, A549, 48 h
Description: Cytotoxicity against human A549 cells after 48 hrs by MTT assay

[7] = test system: HepG2; test: cells; conditions: Homo sapiens, HepG2, 48 h
Description: Cytotoxicity against human HepG2 cells after 48 hrs by MTT assay

[8] = target: T1, Vascular endothelial growth factor receptor 2 (Homo sapiens, UniProt P35968); test: Inhibition of human VEGFR2 preincubated for 10 mins before ATP addition measured after 45 mins
T1 sequence (P35968 whole entry): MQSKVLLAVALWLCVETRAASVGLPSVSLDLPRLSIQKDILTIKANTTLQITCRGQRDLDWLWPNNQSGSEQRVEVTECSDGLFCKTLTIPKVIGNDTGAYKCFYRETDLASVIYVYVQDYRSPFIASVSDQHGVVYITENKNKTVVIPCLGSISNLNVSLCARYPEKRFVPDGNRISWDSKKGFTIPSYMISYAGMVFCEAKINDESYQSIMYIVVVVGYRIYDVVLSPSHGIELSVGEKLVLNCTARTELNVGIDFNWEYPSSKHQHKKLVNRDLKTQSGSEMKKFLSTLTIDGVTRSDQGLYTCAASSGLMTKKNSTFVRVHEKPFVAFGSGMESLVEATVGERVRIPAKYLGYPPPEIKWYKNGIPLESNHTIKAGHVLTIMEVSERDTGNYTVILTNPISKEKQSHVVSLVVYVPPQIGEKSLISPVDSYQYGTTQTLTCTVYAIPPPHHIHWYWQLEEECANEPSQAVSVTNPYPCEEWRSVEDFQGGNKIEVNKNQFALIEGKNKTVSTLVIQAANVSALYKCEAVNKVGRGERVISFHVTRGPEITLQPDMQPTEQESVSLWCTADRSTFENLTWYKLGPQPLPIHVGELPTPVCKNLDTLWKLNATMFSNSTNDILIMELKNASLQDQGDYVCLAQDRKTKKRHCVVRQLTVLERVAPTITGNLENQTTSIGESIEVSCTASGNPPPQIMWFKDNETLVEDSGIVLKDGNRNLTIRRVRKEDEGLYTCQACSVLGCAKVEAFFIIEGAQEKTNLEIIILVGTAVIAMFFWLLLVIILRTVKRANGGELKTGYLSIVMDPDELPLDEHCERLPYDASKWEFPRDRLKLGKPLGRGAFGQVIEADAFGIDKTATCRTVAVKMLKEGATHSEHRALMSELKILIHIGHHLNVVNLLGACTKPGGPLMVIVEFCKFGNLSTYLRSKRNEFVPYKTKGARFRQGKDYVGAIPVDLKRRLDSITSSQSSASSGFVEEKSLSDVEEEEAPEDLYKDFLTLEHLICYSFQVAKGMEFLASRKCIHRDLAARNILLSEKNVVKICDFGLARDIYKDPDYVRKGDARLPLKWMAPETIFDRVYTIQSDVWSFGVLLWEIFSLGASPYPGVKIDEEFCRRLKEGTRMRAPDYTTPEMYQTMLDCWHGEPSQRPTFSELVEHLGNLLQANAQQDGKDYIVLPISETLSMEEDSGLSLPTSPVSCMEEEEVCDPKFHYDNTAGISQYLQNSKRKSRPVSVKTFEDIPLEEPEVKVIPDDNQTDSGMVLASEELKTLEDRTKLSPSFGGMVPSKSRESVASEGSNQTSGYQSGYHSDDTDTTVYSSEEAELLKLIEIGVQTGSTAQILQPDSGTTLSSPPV

[9] = target: T1, Vascular endothelial growth factor receptor 2; test: Inhibition of VEGF-induced VEGFR2 phosphorylation in human HCT116 cells at 0.2 to 20 uM treated 30 mins before VEGF challenge measured after 2 hrs by immuno blot analysis; type: cell-based; conditions: HCT-116
[10] = test system: HCT-116; test: Cell cycle arrest in human HCT116 cells assessed as accumulation at G2 phase at 8 uM after 48 hrs using propidium iodide by flow cytometry (reference value: 16.77%); type: functional
[11] = test system: HCT-116; test: Cell cycle arrest in human HCT116 cells assessed as accumulation at S phase at 8 uM after 48 hrs using propidium iodide by flow cytometry (reference value: 46.43%); type: functional
[12] = test system: HCT-116; test: Induction of apoptosis in human HCT116 cells at 2 uM after 48 hrs using annexin V/propidium iodide staining by flow cytometry (reference value: 4.17%); type: functional
[13] = test system: HCT-116; test: Induction of apoptosis in human HCT116 cells at 0.5 uM after 48 hrs using annexin V/propidium iodide staining by flow cytometry (reference value: 4.17%); type: functional
[14] = test system: HCT-116; test: Cell cycle arrest in human HCT116 cells assessed as accumulation at G1 phase at 2 uM after 48 hrs using propidium iodide by flow cytometry (reference value: 36.8%); type: functional
[15] = test system: HCT-116; test: Induction of apoptosis in human HCT116 cells assessed as increase in late apoptotic cells after 48 hrs using annexin V/propidium iodide staining by flow cytometry; type: functional, cell-based
[16] = test system: HCT-116; test: Cell cycle arrest in human HCT116 cells assessed as accumulation at S phase at 0.5 uM after 48 hrs using propidium iodide by flow cytometry (reference value: 46.43%); type: functional
[17] = test system: HCT-116; test: Cell cycle arrest in human HCT116 cells assessed as accumulation at G1 phase at 0.5 uM after 48 hrs using propidium iodide by flow cytometry (reference value: 36.8%); type: functional
[18] = test system: HCT-116; test: Cell cycle arrest in human HCT116 cells assessed as accumulation at G1 phase after 48 hrs using propidium iodide by flow cytometry; type: functional, cell-based
[19] = test system: HCT-116; test: Cell cycle arrest in human HCT116 cells assessed as accumulation at G2 phase at 0.5 uM after 48 hrs using propidium iodide by flow cytometry (reference value: 16.77%); type: functional
[20] = test system: HCT-116; test: Induction of apoptosis in human HCT116 cells at 8 uM after 48 hrs using annexin V/propidium iodide staining by flow cytometry (reference value: 4.17%); type: functional
[21] = test system: HCT-116; test: Cell cycle arrest in human HCT116 cells assessed as accumulation at G1 phase at 8 uM after 48 hrs using propidium iodide by flow cytometry (reference value: 36.8%); type: functional
[22] = test system: HCT-116; test: Cell cycle arrest in human HCT116 cells assessed as accumulation at G2 phase at 2 uM after 48 hrs using propidium iodide by flow cytometry (reference value: 16.77%); type: functional
[23] = test system: HCT-116; test: Cell cycle arrest in human HCT116 cells assessed as accumulation at S phase at 2 uM after 48 hrs using propidium iodide by flow cytometry (reference value: 46.43%); type: functional

SMILES | IC50 [2] | IC50 [3] | IC50 [4] | IC50 [6] | IC50 [7] | IC50 [1] | IC50 [5] | further results
CCN(CC)CCNC(=O)c1c(C)[nH]c(/C=C2\C(=O)Nc3ccc(F)cc32)c1C [SUNITINIB] | 6.1 µM | 15.5 µM | 21.9 µM | 18.5 µM | 15.4 µM | 25.1 µM | > 50 µM | 
CCc1cccc2c(C=C3C(=O)Nc4cccnc43)c[nH]c12 (mixture of isomers) | 22.3 µM | 34.2 µM | > 50 µM | 32.5 µM | > 50 µM | > 50 µM | 44.8 µM | 
Cc1[nH]c(/C=C2\C(=O)Nc3ncccc32)c(C)c1C(=O)NCCN1CCOCC1 | 25.5 µM | 27.8 µM | > 50 µM | 29.2 µM | > 50 µM | > 50 µM | > 50 µM | 
O=C1Nc2cccnc2C1=Cc1c[nH]c2ccc(F)cc12 (mixture of isomers) | > 50 µM | > 50 µM | > 50 µM | > 50 µM | > 50 µM | > 50 µM | > 50 µM | 
Cc1[nH]c(/C=C2\C(=O)Nc3ccncc32)c(C)c1C(=O)NCCN(C)C | 9.1 µM | 34.8 µM | 15.7 µM | 12.5 µM | 8.6 µM | > 50 µM | > 50 µM | IC50 [8]: 0.06 µM; inhibition [9]: Active
CCN(CC)CCNC(=O)c1ccc(/C=C2\C(=O)Nc3ccc(F)cc32)[nH]c1=O.Cl | 2.3 µM | 22.7 µM | 13.8 µM | 6.2 µM | 5 µM | 21 µM | > 50 µM | Activity [10]: 0.1%; Activity [11]: 18.27%; Activity [12]: 28.63%; Activity [13]: 20.48%; Activity [14]: 45.4%; Activity [15]: Dose-dependent effect; Activity [16]: 42.45%; Activity [17]: 42.6%; Activity [18]: Dose-dependent effect; Activity [19]: 12.11%; Activity [20]: 48.67%; Activity [21]: 81.63%; Activity [22]: 8.61%; IC50 [8]: 0.015 µM; Activity [23]: 38.76%; inhibition [9]: Active
CCc1cccc2c(/C=C3\C(=O)Nc4ncccc43)c[nH]c12 | 13.6 µM | 37.4 µM | 27.7 µM | 17.1 µM | 10.5 µM | > 50 µM | 42.6 µM | 
Cc1[nH]c(/C=C2\C(=O)Nc3ncccc32)c(C)c1C(=O)NCCN(C)C | 9.2 µM | 48.8 µM | 19.8 µM | 21 µM | 18.3 µM | 49.5 µM | > 50 µM | 
Cc1[nH]c(/C=C2\C(=O)Nc3ccncc32)c(C)c1C(=O)N1CCN(CCO)CC1 | > 50 µM | > 50 µM | > 50 µM | > 50 µM | > 50 µM | > 50 µM | > 50 µM | 
CCN(CC)CCNC(=O)c1c(C)[nH]c(/C=C2\C(=O)Nc3ccncc32)c1C | 11 µM | 35 µM | 14.8 µM | 13.9 µM | 16.4 µM | > 50 µM | > 50 µM | 
Cc1[nH]c(/C=C2\C(=O)Nc3ncccc32)c(C)c1C(=O)N1CCN(C)CC1 | 35 µM | 40 µM | > 50 µM | 48.2 µM | 37.3 µM | > 50 µM | > 50 µM | 
CN(C)CCNC(=O)c1ccc(/C=C2\C(=O)Nc3ncccc32)[nH]c1=O | 4.3 µM | 34.3 µM | 21.3 µM | 13.7 µM | 27.3 µM | 26 µM | > 50 µM | 
CN(C)CCNC(=O)c1ccc(/C=C2\C(=O)Nc3ccc(F)cc32)[nH]c1=O | 5.3 µM | 24.7 µM | 19.3 µM | 12.6 µM | 17.1 µM | 25.2 µM | > 50 µM | 

More lines, main results first:

IC50 [2] | IC50 [3] | IC50 [4] | IC50 [6] | IC50 [7] | SMILES | IC50 [1] | IC50 [5] | further results
> 50 µM | > 50 µM | > 50 µM | > 50 µM | > 50 µM | Cc1[nH]c(/C=C2\C(=O)Nc3ccncc32)c(C)c1C(=O)N1CCN(C)CC1 | > 50 µM | > 50 µM | 
18.1 µM | 30.2 µM | 18 µM | 25.4 µM | 38.6 µM | Cc1[nH]c(/C=C2\C(=O)Nc3ncccc32)c(C)c1C(=O)NCCN1CCCCC1 | 25.6 µM | > 50 µM | 
8.6 µM | 26.7 µM | 15.8 µM | 11 µM | 28.1 µM | CCc1cccc2c(/C=C3\C(=O)Nc4ccc(F)cc43)c[nH]c12 | 26.4 µM | > 50 µM | IC50 [8]: 6.58 µM; inhibition [9]: Active
42.1 µM | > 50 µM | > 50 µM | > 50 µM | > 50 µM | O=C1Nc2ccc(F)cc2/C1=C/c1c[nH]c2ccc(F)cc12 | > 50 µM | > 50 µM | 
9.5 µM | 32.7 µM | 26.8 µM | 15.2 µM | 18.9 µM | O=C1Nc2ccc(F)cc2/C1=C/c1ccc(C(=O)NCCN2CCCCC2)c(=O)[nH]1 | 28 µM | > 50 µM | 
17.8 µM | 48 µM | 30 µM | > 50 µM | > 50 µM | O=C1Nc2ncccc2/C1=C/c1c[nH]c2ccc(F)cc12 | > 50 µM | > 50 µM | 
12.8 µM | 38.9 µM | 45.1 µM | 22 µM | 35 µM | O=C1Nc2ccc(F)cc2/C1=C/c1ccc(C(=O)NCCN2CCOCC2)c(=O)[nH]1 | 35.6 µM | > 50 µM | 
8.2 µM | 32.9 µM | 25.3 µM | 11.8 µM | 12.6 µM | CCN(CC)CCNC(=O)c1ccc(/C=C2\C(=O)Nc3cccnc32)[nH]c1=O | 30.3 µM | > 50 µM | 
22.3 µM | 34.1 µM | > 50 µM | 31.1 µM | 15.4 µM | O=C1Nc2ncccc2/C1=C/c1c[nH]c2cc(F)ccc12 | > 50 µM | > 50 µM | 
28 µM | 43.1 µM | > 50 µM | > 50 µM | > 50 µM | O=C1Nc2ccc(F)cc2/C1=C/c1c[nH]c2cc(F)ccc12 | > 50 µM | > 50 µM | 
> 50 µM | > 50 µM | > 50 µM | > 50 µM | > 50 µM | Cc1[nH]c(/C=C2\C(=O)Nc3ncccc32)c(C)c1C(=O)N1CCN(CCO)CC1 | > 50 µM | > 50 µM | 
12.4 µM | 45.9 µM | 24.1 µM | 16.7 µM | 20.2 µM | Cc1[nH]c(/C=C2\C(=O)Nc3cccnc32)c(C)c1C(=O)NCCN(C)C | 47 µM | > 50 µM | 
> 50 µM | > 50 µM | > 50 µM | > 50 µM | > 50 µM | O=C1Nc2cccnc2C1=Cc1c[nH]c2cc(F)ccc12 (mixture of isomers) | > 50 µM | > 50 µM | 
